The values below come from patent US20150141435A1, “2-PYRIDONE ANTIMICROBIAL COMPOSITIONS” (Emergent BioSolutions, priority 2010, published 2015).

Holding throughout (format): cell-based
Assay [1] deals with S. aureus ATCC 25923. The assay is described as follows: MIC, CLSI broth microdilution (Table 1). As to conditions: Staphylococcus aureus, ATCC25923; Gram positive; MHB, 37° C., 16-20 hours; read-out: MIC S. aureus ATCC 25923.
The subject of assay [2] is S. aureus ATCC 43300 (MRSA, FQ-S). In words: MIC, CLSI broth microdilution (Table 1). As to conditions: Staphylococcus aureus; Gram positive; MHB, 37° C., 16-20 hours; read-out: MIC S. aureus ATCC 43300 (MRSA, FQ-S).
In assay [3] the test system is S. aureus BAA-1720 (MRSA, FQ-R). In words: MIC, CLSI broth microdilution (Table 1). The settings on record: Staphylococcus aureus; Gram positive; MHB, 37° C., 16-20 hours; read-out: MIC S. aureus BAA-1720 (MRSA, FQ-R).
Assay [4] has as its system E. faecium ATCC 19434. In words: MIC, CLSI broth microdilution (Table 1). As to conditions: Enterococcus faecium, ATCC19434; Gram positive; MHB, 37° C., 16-20 hours; read-out: MIC E. faecium ATCC 19434. (In general: Dilution methods test growth across graded concentrations, often in twofold steps.)
Assay [5] has as its system E. faecalis ATCC 29212. The assay is described as follows: MIC, CLSI broth microdilution (Table 1). The settings on record: Enterococcus faecalis, ATCC29212; Gram positive; MHB, 37° C., 16-20 hours; read-out: MIC E. faecalis ATCC 29212.
The test system of assay [6] is S. pneumonia ATCC 49619. In words: MIC, CLSI broth microdilution (Table 1). As to conditions: Streptococcus pneumoniae, ATCC49619; Gram positive; MHB, 37° C., 16-20 hours; read-out: MIC S. pneumonia ATCC 49619.
In assay [7] the test system is E. coli ATCC 25922. The assay is described as follows: MIC, CLSI broth microdilution (Table 2). As to conditions: Escherichia coli, ATCC25922; Gram negative; MHB, 37° C., 16-20 hours; read-out: MIC E. coli ATCC 25922.
The subject of assay [8] is A. baumannii ATCC 19606. The assay is described as follows: MIC, CLSI broth microdilution (Table 2). The settings on record: Acinetobacter baumannii, ATCC19606; Gram negative; MHB, 37° C., 16-20 hours; read-out: MIC A. baumannii B. ATCC 19606.
Assay [9] has as its system P. aeruginosa ATCC 27853. The assay is described as follows: MIC, CLSI broth microdilution (Table 2). The settings on record: Pseudomonas aeruginosa, ATCC27853; Gram negative; MHB, 37° C., 16-20 hours; read-out: MIC P. aeruginosa ATCC 27853.
Assay [10] concerns K. pneumoniae ATCC 33495. The assay is described as follows: MIC, CLSI broth microdilution (Table 2). As to conditions: Klebsiella pneumoniae, ATCC33495; Gram negative; MHB, 37° C., 16-20 hours; read-out: MIC K. pneumoniae ATCC 33495.
In assay [11] the test system is H. influenzae ATCC 49247. The assay is described as follows: MIC, CLSI broth microdilution (Table 2). As to conditions: Haemophilus influenzae, ATCC49247; Gram negative; MHB, 37° C., 16-20 hours; read-out: MIC H. influenzae ATCC 49247.
For assay [12], the system named is S. maltophilia ATCC 17677. The assay is described as follows: MIC, CLSI broth microdilution (Table 2). The settings on record: Stenotrophomonas maltophilia, ATCC17677; Gram negative; MHB, 37° C., 16-20 hours; read-out: MIC S. maltophilia ATCC 17677.

Structures can show the parent of a compound that is named as a salt.

Take `Cc1c(-c2cccnc2)ccn2c(=O)c(C(=O)O)cc(C3CC3)c12` [Example 17 K salt, 1-cyclopropyl-9-methyl-4-oxo-8-(pyridin-3-yl)-4H-quinolizine-3-carboxylic acid]: the MIC in assay [1] was determined as 0.016 µg/mL; in assay [2] it was 0.016 µg/mL; in assay [3], 1 µg/mL; in [4], 1 µg/mL; in assay [5] it was 0.064 µg/mL; in assay [6], 0.125 µg/mL. Also, the MIC was 0.064 µg/mL in assay [7]; 0.125 to 0.25 µg/mL in assay [8]; 2 to 4 µg/mL in assay [9]; 0.125 µg/mL in assay [10]; ≤ 0.004 µg/mL in [11]; 0.25 µg/mL in assay [12].
With `Cc1c(-c2ccc(N)cc2)ccn2c(=O)c(C(=O)O)cc(C3CC3)c12` [Example 18 K salt, 8-(4-amino-phenyl)-1-cyclopropyl-9-methyl-4-oxo-4H-quinolizine-3-carboxylic acid], the MIC in assay [1] came out at 0.008 µg/mL; in assay [2], 0.008 µg/mL; in assay [3], 0.25 µg/mL; in [4] it was 0.25 µg/mL; in [5] it was 0.032 µg/mL; in assay [6], 0.064 µg/mL. Also, the MIC in [7] was 0.032 µg/mL; in [8] it was 0.064 µg/mL; in assay [9], 1 µg/mL; in assay [10], 0.064 to 0.25 µg/mL; in assay [11], 0.008 µg/mL; in assay [12] it was 0.125 µg/mL.
`Cc1cc(-c2ccn3c(=O)c(C(=O)O)cc(C4CC4)c3c2C)ccc1N` [Example 19 K salt, 8-(4-amino-3-methyl-phenyl)-1-cyclopropyl-9-methyl-4-oxo-4H-quinolizine-3-carboxylic acid]: the MIC was 0.016 µg/mL in assay [1]; 0.016 µg/mL in [2]; 0.25 µg/mL in assay [3]; 1 µg/mL in assay [4]; 0.032 µg/mL in [5]; 0.064 to 0.125 µg/mL in assay [6]. Moreover, the MIC in assay [7] is 0.064 to 0.125 µg/mL; in assay [8] it was 0.125 to 0.25 µg/mL; in assay [9], 2 µg/mL; in assay [10], 0.25 µg/mL; in [11] it was 0.008 µg/mL; in [12], 0.25 µg/mL.
With `Cc1c(-c2ccc3[nH]ccc3c2)ccn2c(=O)c(C(=O)O)cc(C3CC3)c12` [Example 22 K salt, 1-cyclopropyl-8-(1H-indol-5-yl)-9-methyl-4-oxo-4H-quinolizine-3-carboxylic acid], the MIC in [1] worked out at 0.008 µg/mL; in assay [2], 0.016 µg/mL; in assay [3], 0.5 µg/mL; in assay [4], 4 µg/mL; in assay [5], 0.032 µg/mL; in assay [6], 0.125 µg/mL. Moreover, the MIC in assay [7] came to 0.125 µg/mL; in assay [8], 0.25 µg/mL; in [9] it was 4 µg/mL; in [10], 0.25 µg/mL; in assay [11] it was 0.016 µg/mL; in assay [12], 0.5 µg/mL.
On to `Cc1c(-c2ccc(NC(N)=O)cc2)ccn2c(=O)c(C(=O)O)cc(C3CC3)c12` [Example 24 K salt, 1-cyclopropyl-9-methyl-4-oxo-8-(4-ureido-phenyl)-4H-quinolizine-3-carboxylic acid], for which the MIC in assay [1] was 0.032 to 0.064 µg/mL; in [2], 0.032 µg/mL; in assay [3], > 8 µg/mL; in assay [4] it was 0.5 µg/mL; in assay [5] it was 0.032 µg/mL; in [6], 0.032 µg/mL. For the same compound, the MIC was 0.125 to 0.25 µg/mL in assay [7]; 4 µg/mL in assay [8]; 8 µg/mL in assay [9]; 0.5 µg/mL in [10]; 0.016 µg/mL in assay [11]; > 8 µg/mL in assay [12].
Take `Cc1c(-c2ccc(N(C)C)cc2)ccn2c(=O)c(C(=O)O)cc(C3CC3)c12` [Example 25 K salt, 1-cyclopropyl-8-(4-(dimethylamino)-phenyl)-9-methyl-4-oxo-4H-quinolizine-3-carboxylic acid]: the MIC in assay [1] is 0.064 µg/mL; in assay [2], 0.064 µg/mL; in assay [3], 1 µg/mL; in assay [4], 8 µg/mL; in assay [5], 0.125 µg/mL; in [6], 0.25 µg/mL. Also, the MIC in assay [7] is 0.5 µg/mL; in assay [8] it was 1 µg/mL; in [9] it was > 8 µg/mL; in assay [10] it was 1 µg/mL; in assay [11], 0.064 µg/mL; in [12] it was 1 µg/mL.
Regarding `Cc1c(N2CC[C@H](N)C2)c(F)cn2c(=O)c(C(=O)O)cc(C3CC3)c12` [Example 26 K salt, 8-[(3S)-3-aminopyrrolidin-1-yl]-1-cyclopropyl-7-fluoro-9-methyl-4-oxo-quinolizine-3-carboxylic acid], the MIC amounted to 0.032 µg/mL in [1]; 0.032 µg/mL in assay [2]; 1 µg/mL in assay [3]; 1 µg/mL in assay [4]; 0.125 µg/mL in [5]; 0.064 µg/mL in assay [6]. Besides, the MIC in [7] is ≤ 0.004 µg/mL; in assay [8], 0.064 µg/mL; in assay [9], 0.125 µg/mL; in [10], 0.016 µg/mL; in [11], ≤ 0.004 µg/mL; in assay [12] it was 0.064 µg/mL.
With `Cc1c(N2CC[C@H](N)C2)ccn2c(=O)c(C(=O)O)cc(C3CC3)c12` [Example 27 K salt, 8-[(3S)-3-aminopyrrolidin-1-yl]-1-cyclopropyl-9-methyl-4-oxo-quinolizine-3-carboxylic acid], the MIC is 1 µg/mL in assay [1]; 0.5 µg/mL in assay [2]; 8 µg/mL in assay [3]; > 8 µg/mL in assay [4]; 4 µg/mL in [5]; 2 µg/mL in assay [6]. Besides, the MIC in assay [7] is 0.064 to 0.125 µg/mL; in assay [8] it was 2 µg/mL; in assay [9] it was 2 µg/mL; in assay [10], 0.25 µg/mL; in assay [11], 0.125 µg/mL; in assay [12], 2 µg/mL.
On to `Cc1c(-c2cc(Cl)c(N)c(Cl)c2)ccn2c(=O)c(C(=O)O)cc(C3CC3)c12` [Example 29 K salt, 1-cyclopropyl-8-(4-amino-3,5-dichloro-phenyl)-9-methyl-4-oxo-4H-quinolizine-3-carboxylic acid], for which the MIC in assay [1] was ≤ 0.004 µg/mL; in [2], 0.008 µg/mL; in assay [3], 0.125 µg/mL; in assay [4] it was 0.5 µg/mL; in assay [5] it was 0.008 to 0.016 µg/mL; in assay [6], 0.064 µg/mL. The MIC in assay [7] was 0.25 µg/mL; in assay [8], 0.25 µg/mL; in assay [9] it was 4 µg/mL; in [10], 0.5 to 1 µg/mL; in [11], 0.008 to 0.016 µg/mL; in assay [12], 0.25 µg/mL.
`Cc1cc(-c2ccn3c(=O)c(C(=O)O)cc(C4CC4)c3c2C)c(Cl)cc1N` [Example 30 K salt, 1-cyclopropyl-8-(4-amino-2-chloro-5-methyl-phenyl)-9-methyl-4-oxo-4H-quinolizine-3-carboxylic acid]: the MIC in assay [1] was determined as 0.064 µg/mL; in assay [2], 0.032 µg/mL; in [3], 1 µg/mL; in [4], 2 µg/mL; in assay [5], 0.064 µg/mL; in [6] it was 0.25 µg/mL. Besides, the MIC was 1 µg/mL in assay [7]; 1 to 2 µg/mL in [8]; > 8 µg/mL in assay [9]; 2 to 4 µg/mL in assay [10]; 0.064 µg/mL in assay [11]; 4 µg/mL in [12].
Take `Cc1ccc(-c2ccn3c(=O)c(C(=O)O)cc(C4CC4)c3c2C)cc1` [Example 33 K salt, 1-cyclopropyl-8-(4-methyl-phenyl)-9-methyl-4-oxo-4H-quinolizine-3-carboxylic acid]: the MIC in [1] is 0.016 to 0.032 µg/mL; in assay [2], 0.016 µg/mL; in assay [3] it was 0.5 µg/mL; in [4] it was 0.5 to 1 µg/mL; in [5], 0.064 µg/mL; in assay [6], 0.25 µg/mL. The MIC in [7] is 0.25 µg/mL; in assay [8], 0.5 µg/mL; in [9] it was 2 µg/mL; in [10], 0.5 to 1 µg/mL; in assay [11], 0.016 to 0.032 µg/mL; in [12] it was 0.5 µg/mL.
